20 compounds from patent publication US20100041892A1, “Therapeutic agent for diabetes” (priority 2005, published 2010) can be followed below.

Molecules are shown by their SMILES.

A word on the melting point: it is the temperature, or range, at which the solid turns liquid. Usually EC50 stands for the concentration at which the effect is half-maximal. A lower EC50 goes with an effect from little substance.

The test system of one data set is KKAy mice. In words: Blood glucose and blood lipid (triglyceride) lowering action in mice. In kind it is in vivo. To be noted: Mus musculus, 4TO7, po, 0.03% in powder diet, 4 to 7 days, plasma glucose relative to non-administration group = 100%, read-out: hypoglycemic action (%). The source says: The test compound was mixed with a powder diet (CE-2, CLEA JAPAN, INC.) at a proportion of 0.01% (0.03% for the compounds of Examples 1, 2, 12, 81, 94, 96, 129 and 143, and 0.005% for the compounds of Examples 28, 30 and 37) and freely given to KKAy mice (9 to 14-week-old, 5 mice per group) which are obesity non-insulin-dependent diabetes (type-2 diabetes) models, for 4 to 7 days. During this period, water was freely given. The blood was drawn from the orbital venous plexus. Glucose and triglyceride in the plasma separated from the blood were quantitated using L Type Wako Glu2 (Wako Pure Chemical Industries, Ltd.) and L Type Wako TG·H (Wako Pure Chemical Industries, Ltd.), respectively, according to an enzyme method.
As to `CCCCCS(=O)(=O)NC(=O)CCc1cc(OC(C)C)nn1Cc1ccc(C(F)(F)F)cc1Cl` [Example 143, 3-{1-[2-chloro-4-(trifluoromethyl)benzyl]-3-isopropoxy-1H-pyrazol-5-yl}-N-(pentylsulfonyl)propanamide], the response vs control in vivo at 0.03 % came out at 47%.

The data set is the same for the next values; noted with them: Mus musculus, 4TO7, po, 0.03% in powder diet, 4 to 7 days, plasma triglyceride relative to non-administration group = 100%, read-out: hypolipidemic action (%).
With `CCCCCS(=O)(=O)NC(=O)CCc1cc(OC(C)C)nn1Cc1ccc(C(F)(F)F)cc1Cl` [Example 143, 3-{1-[2-chloro-4-(trifluoromethyl)benzyl]-3-isopropoxy-1H-pyrazol-5-yl}-N-(pentylsulfonyl)propanamide], the response vs control in vivo at 0.03 % is 76%.

Test system in the next data set: not given
Experiment: not given
Conditions: not given
As for `COCCOc1ccc(CCC(=O)NS(=O)(=O)c2ccc(F)cc2)c(Oc2ncc(C(F)(F)F)cc2Cl)c1` [Example 11, 3-[2-{[3-chloro-5-(trifluoromethyl)pyridin-2-yl]oxy}-4-(2-methoxyethoxy)phenyl]-N-[(4-fluorophenyl)sulfonyl]propanamide], the melting point is 136 to 138 °C.
Still for that read-out and setting: the figure for `CC(C)Oc1cc(CCC(=O)NS(=O)(=O)c2ccc(C(F)(F)F)cc2)n(Cc2ccc(Cl)cc2Cl)n1` [Example 83, 3-[1-(2,4-dichlorobenzyl)-3-isopropoxy-1H-pyrazol-5-yl]-N-{[4-(trifluoromethyl)phenyl]sulfonyl}propanamide] is 167 to 169 °C; for `CCCCCS(=O)(=O)NC(=O)CCc1cc(OCc2nnc(C)o2)nn1Cc1ccc(Cl)cc1Cl` [Example 105, 3-{1-(2,4-dichlorobenzyl)-3-[(5-methyl-1,3,4-oxadiazol-2-yl)methoxy]-1H-pyrazol-5-yl}-N-(pentylsulfonyl)propanamide] it is 156 to 158 °C.
Still for that read-out and setting: the figure for `CCCCOc1ccc(CCCOC(=O)NS(=O)(=O)NCCOC(C)C)c(Oc2ncc(C(F)(F)F)cc2Cl)c1` [Example 473, 3-(4-butoxy-2-{[3-chloro-5-(trifluoromethyl)pyridin-2-yl]oxy}phenyl)propyl {[(2-isopropoxyethyl)amino]sulfonyl}carbamate] is 91.4 to 91.6 °C; for `Cc1ccccc1S(=O)(=O)NC(=O)CCc1cc(OC(C)C)nn1Cc1ccc(Cl)cc1Cl` [Example 88, 3-[1-(2,4-dichlorobenzyl)-3-isopropoxy-1H-pyrazol-5-yl]-N-[(2-methylphenyl)sulfonyl]propanamide] it is 165 to 166 °C; for `COCCOc1ccc(/C=C/C(=O)NS(=O)(=O)C(F)(F)F)c(Oc2ncc(C(F)(F)F)cc2Cl)c1` [Example 243, (2E)-3-[2-{[3-chloro-5-(trifluoromethyl)pyridin-2-yl]oxy}-4-(2-methoxyethoxy)phenyl]N-[(trifluoromethyl)sulfonyl]acrylamide] it is 125.5 to 128 °C.
Turning to `CCCCCS(=O)(=O)NC(=O)/C=C/c1ccc(OCC(C)=O)cc1Oc1ncc(C(F)(F)F)cc1Cl` [Example 452, (2E)-3-[2-{[3-chloro-5-(trifluoromethyl)pyridin-2-yl]oxy}-4-(2-oxopropoxy)phenyl]-N-(pentylsulfonyl)acrylamide], the melting point lay within 187 to 188 °C.
On to `COCCOc1ccc(CCCNS(=O)(=O)Cc2ccccc2)c(Oc2ncc(C(F)(F)F)cc2Cl)c1` [Example 19, N-{3-[2-{[3-chloro-5-(trifluoromethyl)pyridin-2-yl]oxy}-4-(2-methoxyethoxy)phenyl]propyl}-1-phenylmethanesulfonamide], for which the melting point was 97 to 100 °C.
`COCCCNS(=O)(=O)NC(=O)OCc1ccc(OCCOC)cc1Oc1ncc(C(F)(F)F)cc1Cl` [Example 75, 2-{[3-chloro-5-(trifluoromethyl)pyridin-2-yl]oxy}-4-(2-methoxyethoxy)benzyl {[(3-methoxypropyl)amino]sulfonyl}carbamate] gave a melting point of 149 to 149.5 °C.
Same read-out and setting: the figure for `COCCOc1ccc(/C=C/C(=O)NS(=O)(=O)c2cccc(C)c2)c(Oc2ncc(C(F)(F)F)cc2Cl)c1` [Example 241, (2E)-3-[2-{[3-chloro-5-(trifluoromethyl)pyridin-2-yl]oxy}-4-(2-methoxyethoxy)phenyl]-N-[(3-methylphenyl)sulfonyl]acrylamide] is 147 to 147.5 °C; for `CCCCCS(=O)(=O)NC(=O)CCc1ccc(OCCOC)cc1OCc1ccc(Cl)cc1Cl` [Example 169, 3-[2-[(2,4-dichlorobenzyl)oxy]-4-(2-methoxyethoxy)phenyl]-N-(pentylsulfonyl)propanamide] it is 106.7 to 108.2 °C; for `COCCCS(=O)(=O)NC(=O)/C=C/c1ccc(OC(C)C)cc1Oc1ncc(C(F)(F)F)cc1Cl` [Example 57, (2E)-3-[2-{[3-chloro-5-(trifluoromethyl)pyridin-2-yl]oxy}-4-isopropoxyphenyl]-N-[(3-methoxypropyl)sulfonyl]acrylamide] it is 129.5 to 130 °C.
Still for that read-out and setting: the figure for `CCCCCS(=O)(=O)NC(=O)/C=C/c1ccc(OCCOC)cc1OCC1CC1` [Example 160, (2E)-3-[2-(cyclopropylmethoxy)-4-(2-methoxyethoxy)phenyl]-N-(pentylsulfonyl)acrylamide] is 64.8 to 66.3 °C.

The next data set deals with T1, PPARγ-RXRα heterodimer (Homo sapiens, UniProt P37231).
T1 construct: expressed in transfected cells; host or cells: CHO-K1 (PPARγ:RXRα:4ERPP/CHO-K1)
T1 sequence (P37231 1-477 isoform P37231-2): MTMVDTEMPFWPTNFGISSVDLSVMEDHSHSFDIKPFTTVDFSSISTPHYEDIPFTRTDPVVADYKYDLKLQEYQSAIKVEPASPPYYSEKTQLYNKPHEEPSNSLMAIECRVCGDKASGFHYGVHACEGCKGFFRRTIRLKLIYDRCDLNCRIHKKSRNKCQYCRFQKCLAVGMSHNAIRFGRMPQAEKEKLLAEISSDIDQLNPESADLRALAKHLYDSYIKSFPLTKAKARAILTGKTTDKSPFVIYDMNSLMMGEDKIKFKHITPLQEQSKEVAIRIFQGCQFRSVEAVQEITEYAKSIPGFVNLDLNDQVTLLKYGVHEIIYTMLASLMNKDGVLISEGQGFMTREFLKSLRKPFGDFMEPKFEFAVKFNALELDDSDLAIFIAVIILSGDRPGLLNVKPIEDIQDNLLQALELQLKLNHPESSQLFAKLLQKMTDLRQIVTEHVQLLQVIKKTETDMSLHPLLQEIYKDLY
T1 sequence (P19793 1-462 partner): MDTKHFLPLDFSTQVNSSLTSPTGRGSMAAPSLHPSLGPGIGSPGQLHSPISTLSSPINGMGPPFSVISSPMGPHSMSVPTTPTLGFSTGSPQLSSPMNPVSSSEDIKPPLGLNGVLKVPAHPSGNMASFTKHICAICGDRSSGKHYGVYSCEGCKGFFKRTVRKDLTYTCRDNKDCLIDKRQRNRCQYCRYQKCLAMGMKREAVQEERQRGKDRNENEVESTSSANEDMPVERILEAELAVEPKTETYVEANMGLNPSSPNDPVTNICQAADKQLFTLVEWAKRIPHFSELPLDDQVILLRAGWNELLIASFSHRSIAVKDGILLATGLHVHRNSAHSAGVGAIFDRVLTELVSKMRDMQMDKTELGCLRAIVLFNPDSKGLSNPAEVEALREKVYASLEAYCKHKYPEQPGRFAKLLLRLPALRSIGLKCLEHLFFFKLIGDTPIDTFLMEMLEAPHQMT
Briefly: PPARγ-RXRα heterodimer ligand activity (luciferase reporter, PPARγ:RXRα:4ERPP/CHO-K1 cells). The data set is classed as cell-based. To be noted: concentration showing 50% of the maximum luciferase induction rate; CHO-K1 reporter cells, one day incubation. The procedure: The PPARγ:RXRα:4ERPP/CHO-K1 cells described in WO03/099793 were cultured in a Ham F12 medium [manufactured by Life Technologies, Inc., US] containing 10% calf fetal serum [manufactured by Life Technologies, Inc., US], sown in a 96-well white plate (manufactured by Corning Coster Corporation, US] at 1×10^4 cells/well, and incubated overnight in a carbon dioxide gas incubator at 37° C.
Then, the medium was removed from the 96 well white plate, 45 μl of Ham F12-medium containing 0.1% fatty acid-free bovine serum albumin (BSA) and a test compound (5 μl) were added, and the cells were incubated for one day in a carbon dioxide gas incubator at 37° C. The medium was removed, 20 μl of PicaGene 7.5 (manufactured by Wako Pure Chemical Industries, Ltd.) 2-fold diluted with HBSS (HANKS' BALANCED SALT SOLUTION) [manufactured by BIO WHITTAKER, US] was added. After stirring, the luciferase activity was determined using the 1420 ARVO Multilabel Counter [manufactured by PerkinElmer, US].
The induction rate was calculated from the luciferase activity of each test compound based on the luciferase activity of the test compound non-administration group as 1. The test compound concentration and the induction rate were analyzed by PRISM [manufactured by GraphPad Software, Inc., US] to calculate EC50 value (compound concentration showing 50% of the maximum value of induction rate) of the test compound.
`COCCOc1ccc(CCCOC(=O)NS(=O)(=O)NCCc2ccccn2)c(Oc2ncc(Cl)cc2Cl)c1` [Example 427, 3-[2-[(3,5-dichloropyridin-2-yl)oxy]-4-(2-methoxyethoxy)phenyl]propyl {[(2-pyridin-2-ylethyl)amino]sulfonyl}carbamate] showed a 50% effective concentration (EC50) of 22 nM.
In turn, `CCCCCS(=O)(=O)NC(=O)CCc1ccc(OCCN2CCCC2=O)cc1Oc1ncc(C(F)(F)F)cc1Cl` [Example 47, 3-{2-{[3-chloro-5-(trifluoromethyl)pyridin-2-yl]oxy}-4-[2-(2-oxopyrrolidin-1-yl)ethoxy]phenyl}-N-(pentylsulfonyl)propanamide] came in with an EC50 of 3.4 nM.
On the same count and under the same terms, the figure for `CCCCCS(=O)(=O)NC(=O)/C=C/c1cc(OC(C)C)nn1Cc1ncc(C(F)(F)F)cc1Cl` [Example 199, (2E)-3-(1-{[3-chloro-5-(trifluoromethyl)pyridin-2-yl]methyl}-3-isopropoxy-1H-pyrazol-5-yl)-N-(pentylsulfonyl)acrylamide] is 13 nM.
In turn, `CCCCCS(=O)(=O)NC(=O)CCc1ccc(OCC(=O)N(CC)CC)cc1Oc1ncc(C(F)(F)F)cc1Cl` [Example 44, 3-{2-{[3-chloro-5-(trifluoromethyl)pyridin-2-yl]oxy}-4-[2-(diethylamino)-2-oxoethoxy]phenyl}-N-(pentylsulfonyl)propanamide] came in with an EC50 of 6.9 nM.
Still for that read-out and setting: the figure for `CCCCCS(=O)(=O)NC(=O)/C=C/c1ccc(OCCCC#N)cc1Oc1ncc(C(F)(F)F)cc1Cl` [Example 451, (2E)-3-[2-{[3-chloro-5-(trifluoromethyl)pyridin-2-yl]oxy}-4-(3-cyanopropoxy)phenyl]-N-(pentylsulfonyl)acrylamide] is 15 nM; for `CCCCCS(=O)(=O)NC(=O)/C=C/c1ccc(OC(C)C)cc1Oc1ncc(C(F)(F)F)cc1Cl` [Example 13, (2E)-3-[2-{[3-chloro-5-(trifluoromethyl)pyridin-2-yl]oxy}-4-isopropoxyphenyl]-N-(pentylsulfonyl)acrylamide] it is 26 nM.
